For the assay, the system named is spontaneous hypertension rats (SHR). Description: Hemodynamics effect of inhaled H2 in spontaneous hypertension rats (telemetry). The class given is in vivo, rat (SHR/Izumo). Here is the method: Male Lewis rats (8 weeks-old, body weight 250-300 g), and 10 weeks-old male spontaneous hypertension rats (SHR/Izumo rats; hereinafter simply referred to as SHR) were used (CLEA Japan). Rats were given water and standard food ad libitum, and were not fasted before experiment. Rats were kept under a condition of standardized temperature (22±1° C.) and humidity (55±5) in a 12 hours:12 hours of light-dark cycle. Rats were acclimated to the experimental condition from at least one week before the experiment. This research was approved by institutional animal control committees (Keio University [Tokyo], No. 13002-4; and Nippon Veterinary and Life Science University [Tokyo], No. 30K-61). Rats were randomly assigned to the H2 group or the control group.
In order to monitor continuous blood pressure fluctuation, telemetry transmitters were implanted into rats. Specifically, rats were anesthetized with isoflurane, and the left groin was disinfected with 1% chlorhexidine. An incision of about 1.5 cm was made in the left groin, the left femoral artery was exposed, and a telemetry transmitter (HD-S10, Physiotel HD Telemetry, Data Science International) catheter was inserted into the left femoral artery. The tip of the transmitter catheter was placed in the abdominal aorta caudally from the branch of the renal artery. The transmitter body was inserted into a subcutaneous pocket made in the left lower back, and the skin was sutured. All surgical intervention was performed under sterile conditions.
H2 gas (1.3% H2+21% O2+77.7 N2) and control gas (21% O2+79% N2) were filled into gas cylinders in advance at a factory. The H2 group and the control group were allowed to inhale the H2 gas and the control gas that were mixed in advance. All animals were allowed to inhale the assigned gas at 10 L/minute for 1 hour in an established anesthesia box, and inhaled for an additional three minutes to purge the box (i.e. a total of 63 minutes). In the nephrectomy model and SHR, gas inhalation was repeated every day for 4 weeks and 2 weeks, respectively.
Spontaneous hypertension rats (SHR) are a well-established hereditary hypertensive model that is broadly used in hypertensive research (Okamoto, K. & Aoki, K. Development of a strain of spontaneously hypertensive rats. Jpn. Circ. J. 27, 282-293 (1963); and Rubattu, S., Struk, B., Kreutz, R., Volpe, M. & Lindpaintner, K. Animal models of genetic hypertension: what can we learn for human hypertension? Clin. Exp. Pharmacol. Physiol. 22, S386-393 (1995)). In order to investigate the consistency of the hypotensive effect of H2 in other hypertensive models, the therapeutic effect of H2 gas against hypertension of SHR was investigated (FIG. 1d). […]

[1] abbreviates: Week 2 compared to Week 1 of daily inhalation, N=3.
[2] abbreviates: Week 3 (week after 2 weeks of inhalation).

Structures are written as SMILES.

Consider `[2H][2H]` [H2 gas, Molecular hydrogen (H2)], for which, under setting [1], the “increase in blood pressure” value is listed as “suppressed” and the “increase in heart rate” value was “suppressed”. Further, under setting [2], the “blood pressure after inhalation was stopped” value was “stayed low” and the “heart rate after inhalation was stopped” value is recorded as “stayed low”.

These data come from US20210177889A1, “GASEOUS PHARMACEUTICAL COMPOSITION FOR HYPERTENSION THERAPY” (KEIO UNIVERSITY, priority 2019, published 2021).
